The results in this text go back to US12090172B2, “Suicide gene therapeutic agent for brain tumors using pluripotent stem cell” (KEIO UNIVERSITY, priority 2017, dated 2024).

For experiment [1], the system named is human glioma cells (U87). Nature of the experiment: Suicide gene cell therapy with TSCs expressing yCD-UPRT with CRISPR/Cas9, transplantation model after tumor formation. In kind it is in vivo, mouse. Particulars: control group 2: TSC (−)/5FC (+), only U87 transplanted. The method, then:
First, 1×10^4 cells/2 μl U87-ffLuc was transplanted to the right striate body (2 mm away from the anterior fontanel to the right and 3 mm deep from the brain surface) of each T cell-deficient mouse (female BALB/c nude mouse, 20 g, 6 w) subjected to general anesthesia, and 1×10^6 cells/2 μl TSCs expressing yCD-UPRT (yCD-UPRT is introduced into iPS cells with CRISPR/Cas9) were stereotactically transplanted to the same site 5 days later. The take of tumor cells was confirmed 2 days later with an IVIS, that is, an in vivo imaging system, and further 2 days later, 500 μl of 5-FC (10 mg/ml) was intraperitoneally administered to a treated group once per day for 2 weeks (TSC (+)/5-FC (+), n=8). Then, 500 μl of 1 M PBS was administered to a control group 1 for 2 weeks in the same way (control group 1: TSC/5-FC (−), n=7). A group to which only U87-ffLuc was transplanted was also generated as another control group, and 500 μl of 5-FC (10 mg/ml) was intraperitoneally administered to this once per day for 2 weeks (control group 2: TSC (−)/5-FC (+), n=3).
A method for evaluating tumors, the analysis of survival curves and the like were all performed in the same way as the above. […]
(§1) The survival analysis was performed while the luminescence imaging analysis (IVIS) of tumors was performed chronologically. […]

Experiment [2] relates to human glioma cells (U87). Kind of experiment: Suicide gene cell therapy with Tet-induced TSCs (3) expressing yCD-UPRT, mixture transplantation model. The format is in vivo, mouse. Particulars: control group 2: TSC (−)/5-FC (+)/Dox (+), only U87-ffLuc transplanted. The protocol: First, 1×10^5 cells/2 μl U87-ffLuc and 5×10^5 cells/2 μl TSCs (3) (Tet-induced yCD-UPRT was introduced into iPS cells with the lentiviral vector) were mixed and stereotactically transplanted to the right striate body (2 mm away from the anterior fontanel to the right and 3 mm deep from the brain surface) of each T cell-deficient mouse (female BALB/c nude mouse, 20 g, 6 w) subjected to general anesthesia. Then, 500 μl of 5-FC (10 mg/ml) was intraperitoneally administered once per day for 2 weeks from the next day (treated group 1: TSC (+)/5-FC (+)/Dox (+), n=7). Next, 500 μl of 1 M PBS was administered to a control group 1 for 2 weeks in the same way (control group 1: TSC (+)/[…], n=9). A group to which only U87-ffLuc was transplanted was also generated as another control group, and 500 μl of 5-FC (10 mg/ml) was intraperitoneally administered to this once per day for 2 weeks (control group 2: TSC (−)/5-FC (+)/Dox (+), n=4). Feed containing 200 mg/kg of Dox was orally ingested. A method for evaluating tumors, the analysis of survival curves and the like were all performed in the same way as the above. […]
Survival analysis was performed, while the luminescence imaging analysis (IVIS) of the tumors was performed chronologically. […]

For experiment [3], the system named is Tet-induced NS/PCs expressing yCD-UPRT. Kind of experiment: Cell death induction by Dox and 5-FC added to the medium. In kind it is cell-based, human. Particulars: 1 μg/ml Dox and 1 μg/ml 5-FC added to the medium. The method, then:
Differentiation induction from the Tet-induced iPS cells expressing yCD-UPRT to NS/PCs was performed to obtain secondary and tertiary Tet-induced NS/PCs expressing yCD-UPRT.

Experiment [4] relates to human glioma cells (U87). Nature of the experiment: Suicide gene cell therapy with TSCs (1) expressing yCD-UPRT, mixture transplantation model. The format is in vivo. Particulars: control group 2: TSC (−)/5FC (+) 5 mg/day, only U87 transplanted.
Experiment [5] concerns human glioma cells (U87). Kind of experiment: Suicide gene cell therapy with TSCs (1) expressing yCD-UPRT, transplantation model after tumor formation. The format is in vivo. Particulars: control group 2: TSC (−)/5FC (+) 5 mg/day, only U87 transplanted. The method, then:
First, 1×10^4 cells/2 μl U87-ffLuc was transplanted to the right striate body (2 mm away from the anterior fontanel to the right and 3 mm deep from the brain surface) of each T cell-deficient mouse (female BALB/c nude mouse, 20 g, 6 w) subjected to general anesthesia, and 1×10^6 cells/2 μl TSCs expressing yCD-UPRT (yCD-UPRT is introduced into NS/PCs with the lentiviral vector) were stereotactically transplanted to the same site 5 days later. The take of tumor cells was confirmed 2 days later with an IVIS, that is, an in vivo imaging system, and 500 μl of 5-FC (10 mg/ml) was then intraperitoneally administered to a treated group once per day for 2 weeks (TSC (+)/5-FC (+) 5 mg/day, n=9). Next, 500 μl of 1 M PBS was administered to a control group 1 for 2 weeks in the same way (control group 1: TSC (+)/5-FC (−), n=9). A group to which only U87-ffLuc was transplanted was also generated as another control group, and 500 μl of 5-FC (10 mg/ml) was intraperitoneally administered to this once per day for 2 weeks (control group 2: TSC (−)/5-FC (+) 5 mg/day, n=3). […]
as §1

Experiment [6] deals with NS/PCs expressing yCD-UPRT (TSCs (2), GAPDH gene region, CRISPR/Cas9). Kind of experiment: Cell death induction by 5-FC added to the medium. In kind it is cell-based, human. Particulars: 1 μg/ml 5-FC added to the medium. The protocol:
Differentiation induction from iPS cells in which yCD-UPRT was incorporated into the GAPDH gene region to NS/PCs was performed to obtain secondary to quinary NS/PCs (TSCs (2)). Culture was performed with 2 μg/ml blasticidin S always added to the medium. It was confirmed that the cell death of the NS/PCs expressing yCD-UPRT was induced by adding 1 μg/ml 5-FC to the medium.

Experiment [7] concerns NS/PCs expressing yCD-UPRT (TSCs (1), lentiviral vector). Kind of experiment: Cell death induction by 5-FC added to the medium. Particulars: 1 μg/ml 5-FC added to the medium. In kind it is cell-based, human. From the text: Secondary to quaternary NS/PCs differentiation-induced from the human iPS cells were collected by a centrifuge, disassembled into single cells using TrypLE Select, suspended in NS medium, inoculated into a low adhesive flask at a concentration of 1×10^5 cells/ml, infected with a CSIV-EF-yCD-UPRT-IRES2-hKO1 lentiviral vector at an MOI (multiplicity of infection) of 1 to 2 and cultured for 7 days with the medium replaced every 3 to 4 days. The obtained NS/PCs were infected with the CSIV-EF-yCD-UPRT-IRES2-hKO1 lentiviral vector at an MOI of 1 to 2 in the same way again to prepare therapeutic stem cells (TSCs (1)), that is, NS/PCs expressing yCD-UPRT. It was confirmed that the cell death of the NS/PCs expressing yCD-UPRT was induced by adding 1 μg/ml 5-FC (fluorocytosine) to the medium.

Experiment [8] concerns Tet-induced iPS cells expressing yCD-UPRT. Kind of experiment: Cell death induction by Dox and 5-FC added to the medium. Particulars: 1 μg/ml doxycycline (Dox) and 1 μg/ml 5-FC added to the medium. In kind it is cell-based, human. The method, then: Human iPS cells were infected with the CSIV-yCD-UPRT-TRE-EF-KT lentiviral vector at an MOI of around 15 and cultured, the clones were then sorted with a cell sorter to obtain an iPS cell line expressing hKO1 steadily and highly. It was confirmed that the cell death of the Tet-induced iPS cells expressing yCD-UPRT was induced by adding 1 μg/ml doxycycline (Dox) and 1 μg/ml 5-FC to the medium.

Regarding `Nc1nc(=O)[nH]cc1F` [5-FC, 5-fluorocytosine], the average survival period came to 21 days in the experiment with human glioma cells (U87) [1], 19 days in the experiment on human glioma cells (U87) [2], 21 days with human glioma cells (U87) [4] and 21 days with human glioma cells (U87) [5]. The cell death result in experiment [3], in experiment [6], in experiment [7] and in experiment [8] was “induced” in each case.
